The source of these data is patent US20140065075A1, “TARGETED CONTRAST AGENTS AND USES THEREOF” (RF THERAPEUTICS INC., priority 2011, published 2014).

The subject of this assay is necrotic tissue (infarcted myocardial tissue). The experiment in a line: MRI analysis of contrast agents in vivo: rats, left main coronary artery ligation and reperfusion, MR images compared with tissue histology. Set-up: species or system rat. The procedure:
Contrast agents were prepared following the methods outlined in Examples 1-11 above. Rats (250-300 g—obtained from where?) were used for the following studies detailed below.
Rats were anesthetized by administration of isoflurane (5% induction, 1-2% maintenance) and positioned in an animal holder. The blood pressure and heart rate of the rats were monitored prior to ligation to provide a baseline condition. The rats were subjected to ligation of the left main coronary artery under aseptic conditions. During the ligation, the left thoracic cage of the rat, at the 4th intercostal space was opened to expose the heart muscle. The pericardial sac was cut open and the left main coronary artery was ligated at 2-4 mm from its origin using 6-0 prolene for a period of 2 h. The ligature was then removed to allow for the reperfusion of the infarcted myocardial tissue. Following the ligation procedure, bupivacaine and Cicatrin were applied to the incision. […]
The contrast agent was the intravenously injected 4 hours following the start of myocardial reperfusion. The blood pressure and heart rate were monitored during the ligation procedure and the administration of the contrast agent. The body temperature of the rats was monitored with a rectal probe and maintained at the physiological level by the circulating warm water. […]

Take `O=C([O-])CN(CCN(CCN(CC(=O)[O-])CC(=O)Nc1ccc(NC(=O)CN(CCN(CCN(CC(=O)[O-])CC(=O)O)CC(=O)O)CC(=O)[O-])cc1)CC(=O)O)CC(=O)[O-].[Na+].[Na+].[Na+].[Na+].[Na+]` [RF 1002]: where the note is “5 mg/kg and 40 mg/kg intravenous 4 hours after start of reperfusion, 7 Tesla MRI about 4 to 16 hours after administration”, the “contrast enhancement in MR images versus necrotic tissue visible by staining of the tissue sample (binding to necrotic tissue)” value is given as “necrotic tissue visible by staining of the tissue sample corresponds to the same region exhibiting contrast enhancement in the MR images”. For the setting “40 mg/kg versus 5 mg/kg intravenous”, the “visibility of contrast enhancement on the MRI, dose comparison” value is “more defined at the higher dosage of contrast agent”.
